# Test results reported in the NIST ThermoML archive (doi:10.1021/je2013704).
# Numbers after ± are expanded uncertainties.
# Assay: mn = molality of the nth substance listed, in mol/kg
# Details: Liquid, Vibrating tube method
compound,measurement,setting,value
[Cl-].[K+] [potassium chloride] + O,mass density,"298.12 K, 900 kPa, m1 = 1.06",1044.2 ± 0.09 kg/m3
same,mass density,"298.12 K, 900 kPa, m1 = 3.15",1124.07 ± 0.14 kg/m3
same,mass density,"298.12 K, 900 kPa, m1 = 4.49",1168.21 ± 0.17 kg/m3
same,mass density,"298.12 K, 9900 kPa, m1 = 1.06",1047.96 ± 0.11 kg/m3
same,mass density,"298.12 K, 9900 kPa, m1 = 3.15",1127.47 ± 0.2 kg/m3
same,mass density,"298.12 K, 9900 kPa, m1 = 4.49",1171.42 ± 0.25 kg/m3
same,mass density,"298.12 K, 19900 kPa, m1 = 1.06",1052.02 ± 0.13 kg/m3
same,mass density,"298.12 K, 19900 kPa, m1 = 3.15",1131.16 ± 0.26 kg/m3
same,mass density,"298.12 K, 19900 kPa, m1 = 4.49",1174.92 ± 0.34 kg/m3
same,mass density,"298.12 K, 29900 kPa, m1 = 1.06",1056.08 ± 0.17 kg/m3
same,mass density,"298.12 K, 29900 kPa, m1 = 3.15",1134.81 ± 0.34 kg/m3
same,mass density,"298.12 K, 29900 kPa, m1 = 4.49",1178.38 ± 0.44 kg/m3
same,mass density,"298.12 K, 39900 kPa, m1 = 1.06",1060 ± 0.2 kg/m3
same,mass density,"298.12 K, 39900 kPa, m1 = 3.15",1138.35 ± 0.41 kg/m3
same,mass density,"298.12 K, 39900 kPa, m1 = 4.49",1181.79 ± 0.53 kg/m3
same,mass density,"298.12 K, 49900 kPa, m1 = 1.06",1063.86 ± 0.24 kg/m3
same,mass density,"298.12 K, 49900 kPa, m1 = 3.15",1141.9 ± 0.49 kg/m3
same,mass density,"298.12 K, 49900 kPa, m1 = 4.49",1185.09 ± 0.63 kg/m3
same,mass density,"298.12 K, 59900 kPa, m1 = 1.06",1067.62 ± 0.29 kg/m3
same,mass density,"298.12 K, 59900 kPa, m1 = 3.15",1145.28 ± 0.57 kg/m3
same,mass density,"298.12 K, 59900 kPa, m1 = 4.49",1188.28 ± 0.74 kg/m3
same,mass density,"298.12 K, 68400 kPa, m1 = 1.06",1070.84 ± 0.33 kg/m3
same,mass density,"298.12 K, 68400 kPa, m1 = 3.15",1148.2 ± 0.65 kg/m3
same,mass density,"298.12 K, 68400 kPa, m1 = 4.49",1191.12 ± 0.83 kg/m3
same,mass density,"323.07 K, 900 kPa, m1 = 1.06",1034.14 ± 0.08 kg/m3
same,mass density,"323.07 K, 900 kPa, m1 = 3.15",1112.58 ± 0.13 kg/m3
same,mass density,"323.07 K, 900 kPa, m1 = 4.49",1156.09 ± 0.17 kg/m3
same,mass density,"323.07 K, 9900 kPa, m1 = 1.06",1037.83 ± 0.1 kg/m3
same,mass density,"323.07 K, 9900 kPa, m1 = 3.15",1115.91 ± 0.18 kg/m3
same,mass density,"323.07 K, 9900 kPa, m1 = 4.49",1159.3 ± 0.24 kg/m3
same,mass density,"323.07 K, 19900 kPa, m1 = 1.06",1041.82 ± 0.12 kg/m3
same,mass density,"323.07 K, 19900 kPa, m1 = 3.15",1119.53 ± 0.25 kg/m3
same,mass density,"323.07 K, 19900 kPa, m1 = 4.49",1162.77 ± 0.32 kg/m3
same,mass density,"323.07 K, 29900 kPa, m1 = 1.06",1045.67 ± 0.15 kg/m3
same,mass density,"323.07 K, 29900 kPa, m1 = 3.15",1123.11 ± 0.31 kg/m3
same,mass density,"323.07 K, 29900 kPa, m1 = 4.49",1166.16 ± 0.41 kg/m3
same,mass density,"323.07 K, 39900 kPa, m1 = 1.06",1049.58 ± 0.18 kg/m3
same,mass density,"323.07 K, 39900 kPa, m1 = 3.15",1126.71 ± 0.38 kg/m3
same,mass density,"323.07 K, 39900 kPa, m1 = 4.49",1169.63 ± 0.5 kg/m3
same,mass density,"323.07 K, 49900 kPa, m1 = 1.06",1053.35 ± 0.21 kg/m3
same,mass density,"323.07 K, 49900 kPa, m1 = 3.15",1130.16 ± 0.46 kg/m3
same,mass density,"323.07 K, 49900 kPa, m1 = 4.49",1172.93 ± 0.6 kg/m3
same,mass density,"323.07 K, 59900 kPa, m1 = 1.06",1057.01 ± 0.25 kg/m3
same,mass density,"323.07 K, 59900 kPa, m1 = 3.15",1133.6 ± 0.53 kg/m3
same,mass density,"323.07 K, 59900 kPa, m1 = 4.49",1176.14 ± 0.69 kg/m3
same,mass density,"323.07 K, 68400 kPa, m1 = 1.06",1060.07 ± 0.29 kg/m3
same,mass density,"323.07 K, 68400 kPa, m1 = 3.15",1136.35 ± 0.6 kg/m3
same,mass density,"323.07 K, 68400 kPa, m1 = 4.49",1178.8 ± 0.78 kg/m3
same,mass density,"348.04 K, 900 kPa, m1 = 1.06",1020.74 ± 0.08 kg/m3
same,mass density,"348.04 K, 900 kPa, m1 = 3.15",1098.82 ± 0.13 kg/m3
same,mass density,"348.04 K, 900 kPa, m1 = 4.49",1142.21 ± 0.16 kg/m3
same,mass density,"348.04 K, 9900 kPa, m1 = 1.06",1024.46 ± 0.09 kg/m3
same,mass density,"348.04 K, 9900 kPa, m1 = 3.15",1102.28 ± 0.17 kg/m3
same,mass density,"348.04 K, 9900 kPa, m1 = 4.49",1145.43 ± 0.22 kg/m3
same,mass density,"348.04 K, 19900 kPa, m1 = 1.06",1028.51 ± 0.1 kg/m3
same,mass density,"348.04 K, 19900 kPa, m1 = 3.15",1105.97 ± 0.23 kg/m3
same,mass density,"348.04 K, 19900 kPa, m1 = 4.49",1148.98 ± 0.3 kg/m3
same,mass density,"348.04 K, 29900 kPa, m1 = 1.06",1032.5 ± 0.12 kg/m3
same,mass density,"348.04 K, 29900 kPa, m1 = 3.15",1109.59 ± 0.29 kg/m3
same,mass density,"348.04 K, 29900 kPa, m1 = 4.49",1152.52 ± 0.38 kg/m3
same,mass density,"348.04 K, 39900 kPa, m1 = 1.06",1036.42 ± 0.15 kg/m3
same,mass density,"348.04 K, 39900 kPa, m1 = 3.15",1113.24 ± 0.35 kg/m3
same,mass density,"348.04 K, 39900 kPa, m1 = 4.49",1155.93 ± 0.47 kg/m3
same,mass density,"348.04 K, 49900 kPa, m1 = 1.06",1040.18 ± 0.17 kg/m3
same,mass density,"348.04 K, 49900 kPa, m1 = 3.15",1116.68 ± 0.42 kg/m3
same,mass density,"348.04 K, 49900 kPa, m1 = 4.49",1159.38 ± 0.56 kg/m3
same,mass density,"348.04 K, 59900 kPa, m1 = 1.06",1043.91 ± 0.21 kg/m3
same,mass density,"348.04 K, 59900 kPa, m1 = 3.15",1120.15 ± 0.49 kg/m3
same,mass density,"348.04 K, 59900 kPa, m1 = 4.49",1162.56 ± 0.65 kg/m3
same,mass density,"348.04 K, 68400 kPa, m1 = 1.06",1047.14 ± 0.24 kg/m3
same,mass density,"348.04 K, 68400 kPa, m1 = 3.15",1123.07 ± 0.55 kg/m3
same,mass density,"348.04 K, 68400 kPa, m1 = 4.49",1165.39 ± 0.73 kg/m3
same,mass density,"372.99 K, 900 kPa, m1 = 1.06",1004.76 ± 0.07 kg/m3
same,mass density,"372.99 K, 900 kPa, m1 = 3.15",1083.32 ± 0.12 kg/m3
same,mass density,"372.99 K, 900 kPa, m1 = 4.49",1126.88 ± 0.15 kg/m3
same,mass density,"372.99 K, 9900 kPa, m1 = 1.06",1008.64 ± 0.08 kg/m3
same,mass density,"372.99 K, 9900 kPa, m1 = 3.15",1086.89 ± 0.16 kg/m3
same,mass density,"372.99 K, 9900 kPa, m1 = 4.49",1130.26 ± 0.21 kg/m3
same,mass density,"372.99 K, 19900 kPa, m1 = 1.06",1012.91 ± 0.09 kg/m3
same,mass density,"372.99 K, 19900 kPa, m1 = 3.15",1090.74 ± 0.2 kg/m3
same,mass density,"372.99 K, 19900 kPa, m1 = 4.49",1133.92 ± 0.28 kg/m3
same,mass density,"372.99 K, 29900 kPa, m1 = 1.06",1017.11 ± 0.1 kg/m3
same,mass density,"372.99 K, 29900 kPa, m1 = 3.15",1094.53 ± 0.26 kg/m3
same,mass density,"372.99 K, 29900 kPa, m1 = 4.49",1137.58 ± 0.35 kg/m3
same,mass density,"372.99 K, 39900 kPa, m1 = 1.06",1021.1 ± 0.11 kg/m3
same,mass density,"372.99 K, 39900 kPa, m1 = 3.15",1098.25 ± 0.31 kg/m3
same,mass density,"372.99 K, 39900 kPa, m1 = 4.49",1141.11 ± 0.43 kg/m3
same,mass density,"372.99 K, 49900 kPa, m1 = 1.06",1025.08 ± 0.13 kg/m3
same,mass density,"372.99 K, 49900 kPa, m1 = 3.15",1101.91 ± 0.37 kg/m3
same,mass density,"372.99 K, 49900 kPa, m1 = 4.49",1144.58 ± 0.51 kg/m3
same,mass density,"372.99 K, 59900 kPa, m1 = 1.06",1028.91 ± 0.16 kg/m3
same,mass density,"372.99 K, 59900 kPa, m1 = 3.15",1105.38 ± 0.43 kg/m3
same,mass density,"372.99 K, 59900 kPa, m1 = 4.49",1147.95 ± 0.59 kg/m3
same,mass density,"372.99 K, 68400 kPa, m1 = 1.06",1032.17 ± 0.18 kg/m3
